# Literature values, collected in patent publication US20250275948A1, “(N-[4-(2,3-DIHYDRO-1H-INDEN-5-YL)-1,3-THIAZOL-2-YL]-2-[4-METHYL-4-(NAPHTHALEN-2-YL)-2,5-DIOXOIMIDAZOLIDIN-1-YL]ACETAMIDE AS STABILIZER OF CLOCK:BMAL1 INTERACTION FOR THE TREATMENT OF CIRCADIAN RHYTHM DISEASES AND DISORDERS” (KOC UNIVERSITESI, priority 2022, published 2025).
# Tests used:
# Conditions in all cases: cited from earlier work
# CRYs = system: CRYs
# gluconeogenesis = system: gluconeogenesis
# REV-ERB = system: REV-ERB
Compound,effect on stability of CRYs (CRYs),effect on gluconeogenesis (gluconeogenesis),effect on REV-ERB repressor function (REV-ERB)
CS(=O)(=O)N(Cc1ccco1)CC(O)Cn1c2ccccc2c2ccccc21 (stereo not drawn) [KL001],increases stability of the CRYs,suppresses the gluconeogenesis,
CC(C)(C)OC(=O)CN(Cc1ccc(Cl)cc1)Cc1ccc([N+](=O)[O-])s1 [GSK4112],,,enhance REV-ERB's repressor function toward Bmal1 transcription
